# Assay results reported in patent US20260356879A1, “CELASTROL DERIVATIVES” (Celloram Inc., priority 2022, published 2026).
# How the values were obtained:
# [1] = tested on: NLRP3 inflammasome; experiment: IL-1β secretion in BMDMs, LPS + Nigericin; assay type: cell-based, mouse; conditions: FIG. 5A; for inhibition of IL-1β secretion: LPS + Nigericin
# Protocol: (§1) This example illustrates a comparative study of CLM-022 and MCC950 in inhibiting NLRP3 inflammasome activity in mouse and human macrophages.
# Bone marrow-derived macrophages (BMDMs) were treated with LPS (100 ng/ml) for 3 hours to induce the expression of inflammatory genes, including TNF-α, NLRP3, and pro-IL-1β. Subsequently, the BMDMs were treated with CLM-022 or MCC950 in a dose range of 0-10 μM for 30 minutes. Then, to fully activate NLRP3-dependent inflammasome activity and cytokine secretion, Nigericin (10 μM) was added to the BMDMs for an additional 30 minutes.
# [2] = tested on: THP-1 cells; experiment: LDH release (NLRP3 inflammasome-induced cytotoxicity) in THP-1 cells; assay type: cell-based, human; conditions: for inhibition of inflammasome-induced pyroptosis: human THP-1 macrophages, overall comparison with MCC950, FIG. 7A-7C
# Source text: Pyroptosis, a pro-inflammatory form of cell death, is triggered by the activation of NLRP3 inflammasome components (GSDMD and Caspase-1), leading to the release of pro-inflammatory cytokines IL-1β and IL-18, as well as damage-associated molecular patterns (DAMPs). This process elicits a cascade of inflammatory responses, which can persist if dysregulated in affected tissues. Given the significant inhibitory potential of CLM-022 against NLRP3 inflammasome and IL-1β secretion, it was proposed that CLM-022 could effectively enhance cell viability by inhibiting pyroptosis in the context of inflammation and inflammasome activation. This example illustrates a comparative study of the abilities of CLM-022 and MCC950 to protect THP-1 cells from inflammasome-induced pyroptosis.
# After LPS and Nigericin treatment, THP-1 cells were treated with either CLM-022 or MCC950 over a dosage range of 0 μM to 10 μM and cell viability was determined by impermeant live/dead staining dye and flow cytometric analysis. Additionally, NLRP3 inflammasome-induced cytotoxicity was investigated by measuring the level of LDH in the conditioned media after the CLM-022 and MCC950 treatments. Further, Western blotting of samples from the THP-1 cell viability assays was carried out to determine levels of the pyroptosis-mediating molecules, GSDMD and Caspase-1.
# [3] = biological target: T1, NLRP3 (Homo sapiens, UniProt Q96P20); experiment: DARTS assay: protection of NLRP3 from Pronase degradation in THP-1 lysates; assay type: binding; conditions: 10 μM, Pronase (50-500 ng/μg of protein), FIG. 6A, 6B
# T1 construct: DARTS with Pronase, NACHT and PYD antibodies
# T1 sequence (Q96P20 whole entry): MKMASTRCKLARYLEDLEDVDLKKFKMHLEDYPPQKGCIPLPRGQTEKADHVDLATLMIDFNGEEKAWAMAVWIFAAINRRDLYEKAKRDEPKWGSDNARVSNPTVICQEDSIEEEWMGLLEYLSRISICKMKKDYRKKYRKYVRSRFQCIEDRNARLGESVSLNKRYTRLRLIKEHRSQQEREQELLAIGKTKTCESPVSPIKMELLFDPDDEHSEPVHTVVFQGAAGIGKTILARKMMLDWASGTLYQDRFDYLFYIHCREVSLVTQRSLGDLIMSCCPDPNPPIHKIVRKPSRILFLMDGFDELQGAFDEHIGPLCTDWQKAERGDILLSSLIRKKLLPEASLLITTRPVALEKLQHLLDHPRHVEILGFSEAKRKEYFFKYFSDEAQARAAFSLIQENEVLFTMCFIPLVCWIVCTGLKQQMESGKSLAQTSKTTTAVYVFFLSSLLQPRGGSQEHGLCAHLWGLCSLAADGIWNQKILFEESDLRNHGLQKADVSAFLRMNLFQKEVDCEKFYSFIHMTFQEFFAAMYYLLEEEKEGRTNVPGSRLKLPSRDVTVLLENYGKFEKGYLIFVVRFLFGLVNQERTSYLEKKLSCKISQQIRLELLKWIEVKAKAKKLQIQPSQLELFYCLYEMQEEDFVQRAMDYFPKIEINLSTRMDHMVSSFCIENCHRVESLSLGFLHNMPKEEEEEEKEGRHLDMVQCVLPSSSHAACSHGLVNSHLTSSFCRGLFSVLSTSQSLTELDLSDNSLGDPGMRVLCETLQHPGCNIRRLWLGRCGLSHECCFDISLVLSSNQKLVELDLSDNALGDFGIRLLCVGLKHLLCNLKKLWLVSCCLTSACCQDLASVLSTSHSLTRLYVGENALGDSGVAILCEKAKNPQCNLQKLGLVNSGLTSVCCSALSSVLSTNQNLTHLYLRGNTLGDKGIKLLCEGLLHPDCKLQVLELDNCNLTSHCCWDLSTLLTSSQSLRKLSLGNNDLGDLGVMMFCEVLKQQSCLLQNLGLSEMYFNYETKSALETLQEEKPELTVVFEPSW
# Source text: The NLRP3 inflammasome is composed of a multi-protein complex and the exact molecular mode of NLRP3 activation remains unclear. Currently, there are no NLRP3 inflammasome inhibitors in the clinic, and it is important to identify the mechanism of action and molecular target of potential small molecules that interact with NLRP3. This example illustrates a study of the ability of CLM-022 to protect the NLRP3 molecule as determined using a drug affinity responsive target stability (DARTS) assay. DARTS assay is a robust method to identify small molecule target protein. In case of a drug-target interaction, the small molecule protects target protein from degradation by proteinase (Pronase) whereas free-proteins may be degraded very efficiently in the given condition.
# The DARTS assay was performed using THP-1 lysates pretreated with LPS and Nigericin to induce activation of NLRP3 inflammasome. THP-1 cells (1×10^5/mL) were treated with LPS (100 ng/ml) for 3 hours, followed by 10 μM Nigericin for an additional 30 minutes. Pronase (50-500 ng/μg of protein) was added to the lysate with CLM-022 (10 μM) or MCC950 (10 μM) for the indicated time (10-15 min) at room temperature. The protein components of NLRP3 inflammasome were visualized using antibody recognizing NLRP3-Natch domain (FIG. 6A), NLRP-PYD domain (FIG. 6B), or NEK7 protein (FIG. 6C). […]
# [4] = tested on: TNF-α secretion; experiment: TNF-α secretion in THP-1 macrophages, LPS + Nigericin; assay type: cell-based; conditions: human THP-1 macrophages, FIG. 5D
# Protocol: as §1
# To confirm the inhibitory effect of CLM-022 in human macrophages, THP-1 cells, a human leukemia monocytic cell line, were differentiated into macrophages using phorbol 12-myristate-13-acetate (PMA, 100 ng/ml) treatment for one day. The THP-1 macrophages were then treated with LPS (100 ng/ml) for 3 hours to induce the expression of inflammatory genes. Subsequently, the THP-1 cells were treated with CLM-022 or MCC950 in a dose range of 0-10 μM for 30 minutes. Then, to fully activate NLRP3-dependent inflammasome activity, Nigericin (10 μM) was added to the THP-1 cells for an additional 60 min.
compound,measurement,setting,value
"CC1=C(O)C(=O)C=C2C1=CC=C1[C@@]2(C)CC[C@@]2(C)[C@@H]3C[C@](C)(N(C)C(=O)C(=O)N(C)C)CC[C@]3(C)CC[C@]12C [Compound 22, N′-[(2R,4aS,6aR,6aS,14aS,14bR)-10-hydroxy-2,4a,6a,6a,9,14a-hexamethyl-11-oxo-1,3,4,5,6,13,14,14b-octahydropicen-2-yl]-N,N,N′-trimethyl-oxamide]",inhibition of IL-1β secretion,[1],"outperforms the benchmark inflammasome inhibitor compound, MCC950, in inhibiting IL-1β secretion (but not TNF-α secretion)"
same,inhibition of IL-1β secretion,[1]; listed as CLM-022,significant inhibition of IL-1β secretion
same,IC50,"[1]; Mus musculus, BMDM, LPS (100 ng/ml) + Nigericin (10 μM), 0-10 μM, read-out: IC50 for inhibition of IL-1β secretion (normalized)",9 nM
same,IC50,"[2]; Homo sapiens, THP-1, LPS and Nigericin, 0 μM to 10 μM, FIG. 7B, read-out: IC50 for LDH release (normalized)",12.4 nM
same,inhibition of LDH release,"[2]; THP-1, LPS and Nigericin, FIG. 7B",significantly inhibited release of LDH
same,higher potency relative to MCC950 in preventing pyroptosis,"[2]; from LDH release IC50 values, FIG. 7B",10 fold
same,inhibition of inflammasome-induced pyroptosis,[2],greater capacity to inhibit inflammasome-induced pyroptosis in human THP-1 macrophages
same,inhibition of inflammasome-induced pyroptosis,[2]; listed as CLM-022,"greater capacity than the benchmark molecule, MCC950, to inhibit inflammasome-induced pyroptosis in human THP-1 macrophages"
same,protection of NLRP3 protein from Pronase-induced degradation,[3],"markedly improved protection of NLRP3 protein, but not NEK7, from Pronase-induced degradation"
same,protection of NLRP3 protein from Pronase-induced degradation,[3]; listed as CLM-022,markedly protected NLRP3 protein from degradation which was obviously more efficient than that of MCC950
same,inhibition of TNF-α secretion,[4],but not TNF-α
